Assay results reported in patent publication US8163160B2, “Biosensor having improved hematocrit and oxygen biases” (Abbott Diabetes Care Inc., priority 2002, dated 2012).
Converted amounts (≈) assume the structure as drawn.

Experiment: Solubility tests in water
Type: physicochemical
Method: Solubility tests in water were performed on the new redox mediators in comparison with the standard PQ mediators.

SMILES	Solubility in Water (percent)	solubility	Solubility in Water
O=C1C(=O)c2cccnc2-c2ncccc21 [PQ, 1,10-phenanthroline-5,6-dione, reference compound]	mg/ml (0.2%)	2000 µg/mL (≈ 9.52 mM)	–
CC(=O)[O-].CC(=O)[O-].O=C1C(=O)c2cccnc2-c2ncccc21.O=C1C(=O)c2cccnc2-c2ncccc21.O=C1C(=O)c2cccnc2-c2ncccc21.[Ni+2] [[Ni(PQ)3](O2CCH3)2]	mg/ml (>50%)	–	>500000 µg/mL
O=C1C(=O)c2cccnc2-c2ncccc21.O=C1C(=O)c2cccnc2-c2ncccc21.O=C1C(=O)c2cccnc2-c2ncccc21.[Ni+2].[O-][Cl+3]([O-])([O-])[O-].[O-][Cl+3]([O-])([O-])[O-] [[Ni(PQ)3](ClO4)2]	mg/ml (<0.05%)	–	<500 µg/mL
